Values of other authors, collected in publication PMC2810551 (Chemistry & biology, 2009).

Test system: CD4+ T cells expressing the MBP Ac1-11 specific Vα2.3/Vβ8.2 TCR
Conditions: immunization with MBP Ac1-11; B10.PL mice; ref [6]

Substance: Ac-ASQKRPSQRSK [MBP Ac1-11]
- activation and expansion of specific CD4+ T cells: results in activation and expansion of CD4+ T cells expressing the MBP Ac1-11 specific Vα2.3/Vβ8.2 TCR
